According to patent publication US12559492B2, “BRAF degraders” (C4 Therapeutics, Inc., priority 2020, dated 2026):

Biological target: BRAF^V600E protein (Homo sapiens, UniProt P15056, V600E)
Experiment: HiBiT cellular BRAF V600E degradation assay
Format: cell-based
Settings: 24 h incubation; for DC50: A375.10 cells (HiBiT tag knocked in at N-terminal of BRAF V600E), concentration at which 50% of total cellular BRAF V600E is degraded; for Emax: read-out: HiBit 24 h Emax
[1] = A375.10 cells, Emax = amount of residual protein remaining in the cell after compound treatment

Sequence of BRAF^V600E protein (P15056 whole entry V600E): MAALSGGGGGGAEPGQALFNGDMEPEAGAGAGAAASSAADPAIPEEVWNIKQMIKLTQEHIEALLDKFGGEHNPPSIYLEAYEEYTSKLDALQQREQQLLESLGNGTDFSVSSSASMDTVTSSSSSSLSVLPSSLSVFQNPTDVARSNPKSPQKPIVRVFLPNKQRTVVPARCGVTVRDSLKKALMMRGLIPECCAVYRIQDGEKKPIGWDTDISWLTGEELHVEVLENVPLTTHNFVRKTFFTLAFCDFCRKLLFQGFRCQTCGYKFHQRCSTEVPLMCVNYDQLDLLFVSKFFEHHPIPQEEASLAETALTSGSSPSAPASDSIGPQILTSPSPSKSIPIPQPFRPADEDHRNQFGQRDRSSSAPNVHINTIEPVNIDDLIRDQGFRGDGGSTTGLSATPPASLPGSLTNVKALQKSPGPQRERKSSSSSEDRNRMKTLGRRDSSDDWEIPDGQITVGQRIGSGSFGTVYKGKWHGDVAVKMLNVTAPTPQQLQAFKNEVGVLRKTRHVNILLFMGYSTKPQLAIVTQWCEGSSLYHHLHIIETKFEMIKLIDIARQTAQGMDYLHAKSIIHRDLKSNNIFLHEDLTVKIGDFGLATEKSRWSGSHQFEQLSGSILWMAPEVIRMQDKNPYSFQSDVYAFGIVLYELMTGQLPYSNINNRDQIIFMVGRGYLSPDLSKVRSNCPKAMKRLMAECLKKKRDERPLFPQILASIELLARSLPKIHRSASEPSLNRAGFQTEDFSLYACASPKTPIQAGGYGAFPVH

SMILES	DC50 [nM]	Emax [1] [%]	HiBit 24 h Emax [1] [%]
CCN(C)S(=O)(=O)Nc1ccc(F)c(C(=O)c2c[nH]c3ncc(-c4ccc(N5CCN(CCCC(=O)N6CCC(c7ccc(OC8CCC(=O)NC8=O)cc7)CC6)CC5)nc4)cc23)c1F (stereo not drawn) [Example A5, 5-[6-[4-[4-[4-[4-(2,6-Dioxopiperidin-3-yl)oxyphenyl]piperidin-1-yl]-4-oxobutyl]piperazin-1-yl]pyridin-3-yl]-3-[3-[[ethyl(methyl)sulfamoyl]amino]-2,6-difluorobenzoyl]-1H-pyrrolo[2,3-b]pyridine]	104	34	
CCN(C)S(=O)(=O)Nc1ccc(F)c(C(=O)c2c[nH]c3ncc(-c4ccc(CN5CCN(C(=O)CN6CCC(c7ccc(NC8CCC(=O)NC8=O)cc7)CC6)CC5)nc4)cc23)c1F (stereo not drawn) [Example A9, 5-[6-[[4-[2-[4-[4-[(2,6-Dioxopiperidin-3-yl)amino]phenyl]piperidin-1-yl]acetyl]piperazin-1-yl]methyl]pyridin-3-yl]-3-[3-[[ethyl(methyl)sulfamoyl]amino]-2,6-difluorobenzoyl]-1H-pyrrolo[2,3-b]pyridine]	30	14	
CCN(C)S(=O)(=O)Nc1ccc(F)c(C(=O)c2c[nH]c3ncc(-c4ccc(CN5CCN(C(=O)CN6CCN(c7ccc(NC8CCC(=O)NC8=O)cc7)CC6)CC5)nc4)cc23)c1F (stereo not drawn) [Example A12, 5-[6-[[4-[2-[4-[4-[(2,6-Dioxopiperidin-3-yl)amino]phenyl]piperazin-1-yl]acetyl]piperazin-1-yl]methyl]pyridin-3-yl]-3-[3-[[ethyl(methyl)sulfamoyl]amino]-2,6-difluorobenzoyl]-1H-pyrrolo[2,3-b]pyridine]	74	24	
CCN(C)S(=O)(=O)Nc1ccc(F)c(C(=O)c2c[nH]c3ncc(-c4ccc(CN5CCN(C6CCN(C(=O)CN7CCC(c8ccc(NC9CCC(=O)NC9=O)cc8)CC7)CC6)CC5)cc4)cc23)c1F (stereo not drawn) [Example A13, 5-[4-[[4-[1-[2-[4-[4-[(2,6-Dioxopiperidin-3-yl)amino]phenyl]piperidin-1-yl]acetyl]piperidin-4-yl]piperazin-1-yl]methyl]phenyl]-3-[3-[[ethyl(methyl)sulfamoyl]amino]-2,6-difluorobenzoyl]-1H-pyrrolo[2,3-b]pyridine]	91	23	
CCN(C)S(=O)(=O)Nc1ccc(F)c(C(=O)c2c[nH]c3ncc(-c4ccc(N5CCN(C(=O)CCCN6CCC(c7ccc(NC8CCC(=O)NC8=O)cc7)CC6)CC5)nc4)cc23)c1F (stereo not drawn) [Example A17, 5-[6-[4-[4-[4-[4-[(2,6-Dioxopiperidin-3-yl)amino]phenyl]piperidin-1-yl]butanoyl]piperazin-1-yl]pyridin-3-yl]-3-[3-[[ethyl(methyl)sulfamoyl]amino]-2,6-difluorobenzoyl]-1H-pyrrolo[2,3-b]pyridine]	44	14	
CCN(C)S(=O)(=O)Nc1ccc(F)c(C(=O)c2c[nH]c3ncc(-c4cnc(N5CCN(C(=O)CCCN6CCC(c7ccc(NC8CCC(=O)NC8=O)cc7)CC6)CC5)nc4)cc23)c1F (stereo not drawn) [Example A18, 5-[2-[4-[4-[4-[4-[(2,6-Dioxopiperidin-3-yl)amino]phenyl]piperidin-1-yl]butanoyl]piperazin-1-yl]pyrimidin-5-yl]-3-[3-[[ethyl(methyl)sulfamoyl]amino]-2,6-difluorobenzoyl]-1H-pyrrolo[2,3-b]pyridine]	42	15	
CCN(C)S(=O)(=O)Nc1ccc(F)c(C(=O)c2c[nH]c3ncc(-c4ccc(CN5CCC(C(=O)N6CCN(c7ccc(OC8CCC(=O)NC8=O)cc7)CC6)C5)cc4)cc23)c1F (stereo not drawn) [Example A19, 5-[4-[[3-[4-[4-(2,6-Dioxopiperidin-3-yl)oxyphenyl]piperazine-1-carbonyl]pyrrolidin-1-yl]methyl]phenyl]-3-[3-[[ethyl(methyl)sulfamoyl]amino]-2,6-difluorobenzoyl]-1H-pyrrolo[2,3-b]pyridine]	84	19	
CCN(C)S(=O)(=O)Nc1ccc(F)c(C(=O)c2c[nH]c3ncc(-c4ccc(CN5CCC(C(=O)N6CCC(c7ccc(OC8CCC(=O)NC8=O)cc7)CC6)C5)cc4)cc23)c1F (stereo not drawn) [Example A20, 5-[4-[[3-[4-[4-(2,6-Dioxopiperidin-3-yl)oxyphenyl]piperidine-1-carbonyl]pyrrolidin-1-yl]methyl]phenyl]-3-[3-[[ethyl(methyl)sulfamoyl]amino]-2,6-difluorobenzoyl]-1H-pyrrolo[2,3-b]pyridine]	138	24	
CCN(C)S(=O)(=O)Nc1ccc(F)c(C(=O)c2c[nH]c3ncc(-c4ccc(CN5CCN(C(=O)CN6CCC(c7ccc(OC8CCC(=O)NC8=O)cc7)CC6)CC5)cc4)cc23)c1F (stereo not drawn) [Example A22, 5-[4-[[4-[2-[4-[4-(2,6-Dioxopiperidin-3-yl)oxyphenyl]piperidin-1-yl]acetyl]piperazin-1-yl]methyl]phenyl]-3-[3-[[ethyl(methyl)sulfamoyl]amino]-2,6-difluorobenzoyl]-1H-pyrrolo[2,3-b]pyridine]	77	20	

Stronger by DC50, values ahead:

DC50 [nM]	Emax [1] [%]	HiBit 24 h Emax [1] [%]	SMILES
24	14		CCN(C)S(=O)(=O)Nc1ccc(F)c(C(=O)c2c[nH]c3ncc(-c4ccc(N5CCN(C(=O)CCCN6CCC(c7ccc(OC8CCC(=O)NC8=O)cc7)CC6)CC5)cc4)cc23)c1F (stereo not drawn) [Example A15, 5-[4-[4-[4-[4-[4-(2,6-Dioxopiperidin-3-yl)oxyphenyl]piperidin-1-yl]butanoyl]piperazin-1-yl]phenyl]-3-[3-[[ethyl(methyl)sulfamoyl]amino]-2,6-difluorobenzoyl]-1H-pyrrolo[2,3-b]pyridine]
21		13	CCN(C)S(=O)(=O)Nc1ccc(F)c(C(=O)c2c[nH]c3ncc(-c4ccc(CN5CCN(CC(=O)N6CCC(c7ccc(NC8CCC(=O)NC8=O)cc7)CC6)CC5)cc4)cc23)c1F.O=C(O)C(F)(F)F (stereo not drawn) [Example A21, 5-[4-[[4-[2-[4-[4-[(2,6-Dioxopiperidin-3-yl)amino]phenyl]piperidin-1-yl]-2-oxoethyl]piperazin-1-yl]methyl]phenyl]-3-[3-[[ethyl(methyl)sulfamoyl]amino]-2,6-difluorobenzoyl]-1H-pyrrolo[2,3-b]pyridine;2,2,2-trifluoroacetic acid]
16.8	12.9		CCN(C)S(=O)(=O)Nc1ccc(F)c(C(=O)c2c[nH]c3ncc(-c4ccc(CN5CCN(CC(=O)N6CCC(c7ccc(NC8CCC(=O)NC8=O)cc7)CC6)CC5)nc4)cc23)c1F (stereo not drawn) [Example A7, 5-[6-[[4-[2-[4-[4-[(2,6-Dioxopiperidin-3-yl)amino]phenyl]piperidin-1-yl]-2-oxoethyl]piperazin-1-yl]methyl]pyridin-3-yl]-3-[3-[[ethyl(methyl)sulfamoyl]amino]-2,6-difluorobenzoyl]-1H-pyrrolo[2,3-b]pyridine;2,2,2-trifluoroacetic acid]
15	13		CCN(C)S(=O)(=O)Nc1ccc(F)c(C(=O)c2c[nH]c3ncc(-c4cnc(N5CCN(C(=O)CN6CCC(c7ccc(OC8CCC(=O)NC8=O)cc7)CC6)CC5)nc4)cc23)c1F (stereo not drawn) [Example A6, 5-[2-[4-[2-[4-[4-(2,6-Dioxopiperidin-3-yl)oxyphenyl]piperidin-1-yl]acetyl]piperazin-1-yl]pyrimidin-5-yl]-3-[3-[[ethyl(methyl)sulfamoyl]amino]-2,6-difluorobenzoyl]-1H-pyrrolo[2,3-b]pyridine]
10.6	9.74		CCN(C)S(=O)(=O)Nc1ccc(F)c(C(=O)c2c[nH]c3ncc(-c4ccc(N5CCN(C(=O)CN6CCC(c7ccc(OC8CCC(=O)NC8=O)cc7)CC6)CC5)cc4)cc23)c1F (stereo not drawn) [Example A14, 5-[4-[4-[2-[4-[4-(2,6-Dioxopiperidin-3-yl)oxyphenyl]piperidin-1-yl]acetyl]piperazin-1-yl]phenyl]-3-[3-[[ethyl(methyl)sulfamoyl]amino]-2,6-difluorobenzoyl]-1H-pyrrolo[2,3-b]pyridine]
8.18	9.42		CCN(C)S(=O)(=O)Nc1ccc(F)c(C(=O)c2c[nH]c3ncc(-c4ccc(N5CCN(C(=O)CN6CCC(c7ccc(NC8CCC(=O)NC8=O)cc7)CC6)CC5)nc4)cc23)c1F (stereo not drawn) [Example A8, 5-[6-[4-[2-[4-[4-[(2,6-Dioxopiperidin-3-yl)amino]phenyl]piperidin-1-yl]acetyl]piperazin-1-yl]pyridin-3-yl]-3-[3-[[ethyl(methyl)sulfamoyl]amino]-2,6-difluorobenzoyl]-1H-pyrrolo[2,3-b]pyridine]
8	11		CCN(C)S(=O)(=O)Nc1ccc(F)c(C(=O)c2c[nH]c3ncc(-c4cnc(N5CCN(C(=O)CN6CCN(c7ccc(NC8CCC(=O)NC8=O)cc7)CC6)CC5)nc4)cc23)c1F (stereo not drawn) [Example A16, 5-[2-[4-[2-[4-[4-[(2,6-Dioxopiperidin-3-yl)amino]phenyl]piperazin-1-yl]acetyl]piperazin-1-yl]pyrimidin-5-yl]-3-[3-[[ethyl(methyl)sulfamoyl]amino]-2,6-difluorobenzoyl]-1H-pyrrolo[2,3-b]pyridine]
6.71	11.6		CCN(C)S(=O)(=O)Nc1ccc(F)c(C(=O)c2c[nH]c3ncc(-c4ccc(N5CCN(C(=O)CN6CCN(c7ccc(NC8CCC(=O)NC8=O)cc7)CC6)CC5)nc4)cc23)c1F (stereo not drawn) [Example A11, 5-[6-[4-[2-[4-[4-[(2,6-Dioxopiperidin-3-yl)amino]phenyl]piperazin-1-yl]acetyl]piperazin-1-yl]pyridin-3-yl]-3-[3-[[ethyl(methyl)sulfamoyl]amino]-2,6-difluorobenzoyl]-1H-pyrrolo[2,3-b]pyridine]
3	8		CCN(C)S(=O)(=O)Nc1ccc(F)c(C(=O)c2c[nH]c3ncc(-c4cnc(N5CCN(C(=O)CN6CCC(c7ccc(NC8CCC(=O)NC8=O)cc7)CC6)CC5)nc4)cc23)c1F (stereo not drawn) [Example A10, 5-[2-[4-[2-[4-[4-[(2,6-Dioxopiperidin-3-yl)amino]phenyl]piperidin-1-yl]acetyl]piperazin-1-yl]pyrimidin-5-yl]-3-[3-[[ethyl(methyl)sulfamoyl]amino]-2,6-difluorobenzoyl]-1H-pyrrolo[2,3-b]pyridine]
